Read-outs that look alike come from different tables or passages of the source.
Assays:
[1] = test system: tumour spheroids; assay: Degradation of tumour spheroids; type: cell-based, human
Source text: (§1) Tumour recurrence post-chemotherapy is caused by the regrowth of the surviving innately drug-resistant cancer stem cells that remain in tumour niches during and post-chemotherapy. The expansion of this chemo-resistant cancer cell population, coupled with upregulation of pro-survival pathways due to drug pressure, is thought to be responsible for the development of chemo-resistant recurrent disease. Further, the inherent heterogeneity of ovarian tumours consists of epithelial cells with varying potential for stemness, and a population of cancer cells with varying mesenchymal status and invasiveness potential. Therefore, to improve survival, a practical approach is the use of novel therapies that can induce cell death in these various subtypes of ovarian cancer cells. TRX-E-002-1 was assessed against ovarian cancer stem cell line OCSC2, characterised by their expression of stem cell markers including CD44 and […] [22]. A major characteristic of these cells is that they are drug resistant, able to form self-renewing spheroids in non-adherent culture, and recreate disseminated drug-resistant ovarian tumours that have a high degree of heterogeneity similar to the clinical profile observed in patients when inoculated into the peritoneal cavity of an immune-compromised mouse.

[2] = test system: co-cultures which mimic tumour heterogeneity; assay: Co-culture studies with cisplatin; type: cell-based, human
Source text: as §1

[3] = test system: human Panc-1 pancreatic tumour cells implanted orthotopically; assay: Orthotopic model of pancreatic cancer; type: in vivo, female NOD-SCID mice; details: 100 mg/kg i.p. once daily in 20% SBECD, 18 consecutive days; p < 0.001
Method: Fig. 3 Efficacy of TRX-E-002-1 in an orthotopic model of pancreatic cancer. Female NOD-SCID mice were inoculated directly into the pancreas with PANC-1 human pancreatic epithelioid adenocarcinoma cells transfected with luciferase gene. Tumours were allowed to establish prior to treatment initiation. Animals were dosed with TRX-E-002-1 100 mg/kg i.p. for 18 consecutive days over which time tumour growth was monitored using bioluminescent imaging. Following euthanasia at the predetermined end-point, tumours were excised and weighed. Final tumour (plus pancreas) weights excised at the terminal time point. *p < 0.001

[4] = test system: ovarian, prostate and lung cancer cells; assay: Broad cytotoxic activity; type: cell-based; details: Homo sapiens, summary over ovarian
Source text: Activity in pancreatic and colorectal cancer cells and glioblastoma cells was more variable (Table 1).

[5] = Rat pharmacokinetics after single intraperitoneal injection of 100 mg/kg; type: in vivo, Sprague–Dawley rats; details: for AUC(0-inf) / Tmax / half-life: Sprague-Dawley, rat, ip, plasma
Method: The pharmacokinetics of TRX-E-002-1 was evaluated in male female Sprague–Dawley rats following a single intraperitoneal injection of 100 mg/kg TRX-E-002-1 in 20% SBECD vehicle. Absorption was rapid, with C max mean plasma concentrations reached 0.25/1 h after dosing in female/male rats. […] Mean plasma levels decreased to below the limit of quantification by 24 h (not shown). The AUC0−∞ value was 29,537 and 44,702 ng h/mL in female and male rats, respectively (Table 2). High tissue levels were observed 0.5–6 h after dosing, with levels higher than the plasma concentration in pancreas, ovaries, large intestine, skin, kidneys, liver, stomach and adrenal glands (not shown). Treatment of plasma and tissue samples with glucuronidase indicated the presence of low levels of a glucuronide conjugate of TRX-E-002-1 (not shown). Other metabolic pathways have not yet been investigated. […] Parent drug was excreted in the urine and faeces, and high levels of the glucuronide metabolite were found in the faeces.
Tissue concentrations of total drug (parent + glucuronide) were also similar to those in plasma except in liver, where they were 2–3 times higher.

[6] = test system: Escherichia coli strain WP2uvrA; assay: Bacterial reverse mutation test, plate assay; type: cell-based; details: absence or presence of S9 mix
Method: (§2) The assays were performed in compliance with GLP regulations.
(§3) The bacterial reverse mutation test employed Salmonella typhimurium strains TA1535, TA1537, TA98 and TA100, and Escherichia coli strain WP2uvrA in a conventional plate assay, with and without exogenous metabolic activation by a rat liver post-mitochondrial fraction (S9 mix).

[7] = test system: Salmonella typhimurium strains TA1535, TA1537, TA98 and TA100; assay: Bacterial reverse mutation test, plate assay; type: cell-based; details: absence or presence of S9 mix
Method: as §2, §3

[8] = Rat 14-day pilot repeat-dose intraperitoneal toxicity study; type: in vivo; details: for deaths: 50 mg/kg/day; for AUC(0-t) / Cmax: plasma, Day 14, 5 mg/kg/day; for Cmax: read-out: plasma C max
Method: Clinical signs at all dose levels were reduced and/or liquid faeces, and staining of the fur of the forelimbs or around the eyes, nose and snout. […] Macroscopic pathology findings were limited to the 50 mg/kg/day group and included small testes, small thymus and small spleen.

[9] = Second dog pharmacokinetic study, 10 mg/kg intraperitoneal, four dogs; type: in vivo, beagle dogs; details: 10 mg/kg i.p.
Method: In beagle dogs, plasma concentrations of unconjugated TRX-E-002-1 at early time points (1–4 h’ post-dose) were 76–93% of the total levels (parent + glucuronide). At 8 h, the plasma concentrations of the glucuronide metabolites were similar to those of parent drug. By 24 h’ post-dose, the concentrations of TRX-E-002-1-glucuronide in plasma and gastrointestinal tissues (except colon) were 2–12 times higher than those of the parent drug. The increased levels of TRX-E-0021-glucuronide relative to those of parent drug at 24 h post-dose may reflect slower elimination of the glucuronide metabolites.

[10] = test system: micronucleated polychromatic erythrocytes (PCEs) in bone marrow; assay: Bone marrow micronucleus test; type: in vivo, ARC(S) Swiss mice; details: for frequency of micronucleated PCEs: female mice
Method: as §2
The bone marrow micronucleus test was the in vivo part of the ICH genotoxicity testing battery and was conducted in ARC(S) Swiss mice. Eight groups of mice (10/sex/group) were given an intraperitoneal injection of vehicle (20% w/v SBECD) or Cantrixil at 50, 200 or 400 mg/kg and were killed 24 or 48 h later. Dimethyl-1,2 benzanthracene was used as the positive control. After preparation of the bone marrow cells, the number of micronucleated polychromatic erythrocytes (PCEs) was determined in 4000 PCEs per animal, and the proportion of PCEs in the total erythrocyte population in bone marrow was calculated from the examination of at least 500 erythrocytes as an index of bone marrow toxicity. […] The proportion of PCEs in the total erythrocyte population was decreased in both sexes at the 200 and 400 mg/kg doses at both kill times. TRX-E-002-1 is therefore considered clastogenic in this system at the described concentrations in vivo [the equivalent 200/400 mg/kg dose in a […] is 16.2 mg/kg (600 mg/m^2)/32.4 mg/kg (1200 mg/m^2) in a 60-kg human].

[11] = female, Sprague-Dawley, rat, ip, females
[12] = male, Sprague-Dawley, rat, ip, males

With `COc1cc([C@@H]2COc3c(ccc(O)c3C)[C@@H]2c2ccc(O)cc2)cc(OC)c1O` [TRX-E-002-1, (+) cis-4-(para-hydroxyphenyl)-7,4′-dihydroxy-3′,5′-dimethoxy-8-methylisoflavan] the “effect on tumour spheroids” value [1] was “promoted the degradation”, the “effect on effectiveness of cisplatin” value [2] was “enhanced the effectiveness of cisplatin” and the “terminal pancreatic tumour burden” value [3] was “significantly reduced”. For the same compound, the IC50 [4] was ≤ 100 nM, the “time by which mean plasma levels were below the limit of quantification” value ([5]; 100 mg/kg i.p.) was ≤ 24 h and the AUC(0-inf) ([5]; female rats, 100 mg/kg i.p.) was 29500 ng·h/mL. The Tmax ([5]; female rats, 100 mg/kg i.p.) was 0.25 h, the AUC(0-inf) ([5]; male rats, 100 mg/kg i.p.) was 44700 ng·h/mL and the Tmax ([5]; male rats, 100 mg/kg i.p.) was 1 h. The half-life ([5]; female rats, 100 mg/kg i.p., read-out: T ½ (plasma elimination half-life) (converted)) was ~1.3 h, the half-life ([5]; male rats, 100 mg/kg i.p., read-out: plasma elimination half-life (converted)) was ~1.9 h and the “plasma unconjugated TRX-E-002-1 as share of total levels (parent + glucuronide)” value ([5]; female rats, up to 6 h after dosing) was “approximately 90%”. The “number of revertant colonies” value [6] was “no significant increases”, the “number of revertant colonies” value [7] was “no significant increases” and the deaths ([8]; females) was 8/11. The deaths ([8]; males) was 9/11, the NOAEL at 14 days ([8]; both sexes, Sprague-Dawley, rat, in vivo, ip) was 5 mg/kg/day and the AUC(0-t) [8, 11] was 665 ng·h/mL. For the same compound, the Cmax [8, 11] was 257 ng/mL, the “doses with reduced body weight gain” value ([8]; females) was ≥ 15 mg/kg/day and the AUC(0-t) [8, 12] was 1870 ng·h/mL. The Cmax [8, 12] was 909 ng/mL, the “doses with reduced body weight gain” value ([8]; males) was ≥ 5 mg/kg/day and the “TRX-E-002-1 levels by 72 h” value [9] was “close to or below the limit of quantification”. The Kp at 24 h ([9]; beagle, dog, gastrointestinal tissues, ip, 24 h after dosing, read-out: concentrations in gastrointestinal tissues relative to plasma) was ≥ 30, the “clastogenicity, overall conclusion” value ([10]; at the described concentrations in vivo) was “clastogenic” and the “proportion of PCEs in the total erythrocyte population” value ([10]; both sexes, 200 and 400 mg/kg, both kill times) was “decreased”. The “frequency of micronucleated PCEs” value ([10]; 200 mg/kg i.p., 24 and 48 h) was “significantly increased”, the “frequency of micronucleated PCEs” value ([10]; 400 mg/kg i.p., 24 h) was “significantly increased” and the “slight increases in frequency of micronucleated PCEs” value ([10]; male mice, 200 and 400 mg/kg i.p.) was “not statistically significant”.

Reference: PMC5306062, “Pharmacology and toxicology of the novel investigational agent Cantrixil (TRX-E-002-1)” (Cancer Chemotherapy and Pharmacology, 2016)
